Each structure is given as a SMILES string. Numbers after ± are expanded uncertainties.

One data set in a line: activity coefficient (dimensionless); of the first substance listed, at infinite dilution; xn = mol fraction of the nth substance listed. As to conditions: 358.15 K; 101 kPa; Liquid; Chromatography; x1 = 0.
Regarding `CCC(C)(C)C` [2,2-dimethylbutane] + O=S(=O)([N-]S(=O)(=O)C(F)(F)F)C(F)(F)F.OCCC[n+]1ccccc1, the activity coefficient stood at 26.3 ± 1.8.

On to `CCC(C)(C)OC` [2-methoxy-2-methylbutane] + O=S(=O)([N-]S(=O)(=O)C(F)(F)F)C(F)(F)F.OCCC[n+]1ccccc1, for which the activity coefficient is 4.77 ± 0.33.

Turning to `COC(C)(C)C` [2-methoxy-2-methylpropane] + O=S(=O)([N-]S(=O)(=O)C(F)(F)F)C(F)(F)F.OCCC[n+]1ccccc1, the activity coefficient stood at 3.08 ± 0.21.

As to `CCC(C)CC` [3-methylpentane] + O=S(=O)([N-]S(=O)(=O)C(F)(F)F)C(F)(F)F.OCCC[n+]1ccccc1, the activity coefficient was determined as 28.5 ± 1.9.

For `CC(=O)O` [acetic acid] + O=S(=O)([N-]S(=O)(=O)C(F)(F)F)C(F)(F)F.OCCC[n+]1ccccc1, the activity coefficient amounted to 0.343 ± 0.032.

As for `CC(C)=O` [acetone] + O=S(=O)([N-]S(=O)(=O)C(F)(F)F)C(F)(F)F.OCCC[n+]1ccccc1, the activity coefficient worked out at 0.469 ± 0.037.

In the case of `c1ccccc1` [benzene] + O=S(=O)([N-]S(=O)(=O)C(F)(F)F)C(F)(F)F.OCCC[n+]1ccccc1, the activity coefficient was 1.61 ± 0.11.

Turning to `CCCCO` [butan-1-ol] + O=S(=O)([N-]S(=O)(=O)C(F)(F)F)C(F)(F)F.OCCC[n+]1ccccc1, the activity coefficient came to 1.82 ± 0.12.

With `C1CCCCCC1` [cycloheptane] + O=S(=O)([N-]S(=O)(=O)C(F)(F)F)C(F)(F)F.OCCC[n+]1ccccc1, the activity coefficient worked out at 22.9 ± 1.6.

With `C1CCCCC1` [cyclohexane] + O=S(=O)([N-]S(=O)(=O)C(F)(F)F)C(F)(F)F.OCCC[n+]1ccccc1, the activity coefficient is 16.7 ± 1.1.

Regarding `C1=CCCCC1` [cyclohexene] + O=S(=O)([N-]S(=O)(=O)C(F)(F)F)C(F)(F)F.OCCC[n+]1ccccc1, the activity coefficient came out at 8.92 ± 0.61.

`C1CCCCCCC1` [cyclooctane] + O=S(=O)([N-]S(=O)(=O)C(F)(F)F)C(F)(F)F.OCCC[n+]1ccccc1: the activity coefficient amounted to 31.3 ± 2.1.

Still in this data set, the particulars now being: 368.15 K; 101 kPa; Liquid; Chromatography; x1 = 0.
Consider `Cc1ccccc1C` [1,2-dimethylbenzene] + O=S(=O)([N-]S(=O)(=O)C(F)(F)F)C(F)(F)F.OCCC[n+]1ccccc1, for which the activity coefficient was found to be 3.15 ± 0.21.

As for `Cc1cccc(C)c1` [1,3-dimethylbenzene] + O=S(=O)([N-]S(=O)(=O)C(F)(F)F)C(F)(F)F.OCCC[n+]1ccccc1, the activity coefficient turned out to be 3.61 ± 0.25.

On to `Cc1ccc(C)cc1` [1,4-dimethylbenzene] + O=S(=O)([N-]S(=O)(=O)C(F)(F)F)C(F)(F)F.OCCC[n+]1ccccc1, for which the activity coefficient was found to be 3.64 ± 0.25.

With `C1COCCO1` [1,4-dioxane] + O=S(=O)([N-]S(=O)(=O)C(F)(F)F)C(F)(F)F.OCCC[n+]1ccccc1, the activity coefficient is 0.647 ± 0.044.

As for `C=CCCCCCCCC` [1-decene] + O=S(=O)([N-]S(=O)(=O)C(F)(F)F)C(F)(F)F.OCCC[n+]1ccccc1, the activity coefficient came out at 79.7 ± 5.5.

With `C=CCCCCC` [1-heptene] + O=S(=O)([N-]S(=O)(=O)C(F)(F)F)C(F)(F)F.OCCC[n+]1ccccc1, the activity coefficient came to 23.7 ± 1.6.

`C#CCCCCC` [1-heptyne] + O=S(=O)([N-]S(=O)(=O)C(F)(F)F)C(F)(F)F.OCCC[n+]1ccccc1: the activity coefficient came out at 8.55 ± 0.58.

As to `C#CCCCC` [1-hexyne] + O=S(=O)([N-]S(=O)(=O)C(F)(F)F)C(F)(F)F.OCCC[n+]1ccccc1, the activity coefficient stood at 5.72 ± 0.39.

Regarding `C#CCCCCCC` [1-octyne] + O=S(=O)([N-]S(=O)(=O)C(F)(F)F)C(F)(F)F.OCCC[n+]1ccccc1, the activity coefficient was 12.7 ± 0.9.

For `CC(C)CC(C)(C)C` [2,2,4-trimethylpentane] + O=S(=O)([N-]S(=O)(=O)C(F)(F)F)C(F)(F)F.OCCC[n+]1ccccc1, the activity coefficient came to 47.3 ± 3.2.

`CCC(C)(C)OC` [2-methoxy-2-methylbutane] + O=S(=O)([N-]S(=O)(=O)C(F)(F)F)C(F)(F)F.OCCC[n+]1ccccc1: the activity coefficient is 4.84 ± 0.33.

For the molecule `COC(C)(C)C` [2-methoxy-2-methylpropane] + O=S(=O)([N-]S(=O)(=O)C(F)(F)F)C(F)(F)F.OCCC[n+]1ccccc1, the activity coefficient was 3.18 ± 0.22.

Consider `CC(=O)O` [acetic acid] + O=S(=O)([N-]S(=O)(=O)C(F)(F)F)C(F)(F)F.OCCC[n+]1ccccc1, for which the activity coefficient was determined as 0.367 ± 0.033.

Turning to `CC(C)=O` [acetone] + O=S(=O)([N-]S(=O)(=O)C(F)(F)F)C(F)(F)F.OCCC[n+]1ccccc1, the activity coefficient was 0.484 ± 0.037.

For `c1ccccc1` [benzene] + O=S(=O)([N-]S(=O)(=O)C(F)(F)F)C(F)(F)F.OCCC[n+]1ccccc1, the activity coefficient is 1.62 ± 0.11.

Take `CCCCO` [butan-1-ol] + O=S(=O)([N-]S(=O)(=O)C(F)(F)F)C(F)(F)F.OCCC[n+]1ccccc1: the activity coefficient is 1.73 ± 0.12.

`C1CCCCCC1` [cycloheptane] + O=S(=O)([N-]S(=O)(=O)C(F)(F)F)C(F)(F)F.OCCC[n+]1ccccc1: the activity coefficient amounted to 21.2 ± 1.4.

`C1CCCCC1` [cyclohexane] + O=S(=O)([N-]S(=O)(=O)C(F)(F)F)C(F)(F)F.OCCC[n+]1ccccc1: the activity coefficient was found to be 15.5 ± 1.1.

On to `C1=CCCCC1` [cyclohexene] + O=S(=O)([N-]S(=O)(=O)C(F)(F)F)C(F)(F)F.OCCC[n+]1ccccc1, for which the activity coefficient stood at 8.52 ± 0.58.

`C1CCCCCCC1` [cyclooctane] + O=S(=O)([N-]S(=O)(=O)C(F)(F)F)C(F)(F)F.OCCC[n+]1ccccc1: the activity coefficient worked out at 28.6 ± 2.

Still in this data set, the particulars now being: 378.15 K; 101 kPa; Liquid; Chromatography; x1 = 0.
As for `Cc1ccccc1C` [1,2-dimethylbenzene] + O=S(=O)([N-]S(=O)(=O)C(F)(F)F)C(F)(F)F.OCCC[n+]1ccccc1, the activity coefficient turned out to be 3.15 ± 0.21.

With `Cc1cccc(C)c1` [1,3-dimethylbenzene] + O=S(=O)([N-]S(=O)(=O)C(F)(F)F)C(F)(F)F.OCCC[n+]1ccccc1, the activity coefficient is 3.62 ± 0.25.

Turning to `Cc1ccc(C)cc1` [1,4-dimethylbenzene] + O=S(=O)([N-]S(=O)(=O)C(F)(F)F)C(F)(F)F.OCCC[n+]1ccccc1, the activity coefficient came to 3.65 ± 0.25.

For the molecule `C1COCCO1` [1,4-dioxane] + O=S(=O)([N-]S(=O)(=O)C(F)(F)F)C(F)(F)F.OCCC[n+]1ccccc1, the activity coefficient came to 0.672 ± 0.046.

On to `CC(=O)O` [acetic acid] + O=S(=O)([N-]S(=O)(=O)C(F)(F)F)C(F)(F)F.OCCC[n+]1ccccc1, for which the activity coefficient turned out to be 0.388 ± 0.034.

In the case of `CC(C)=O` [acetone] + O=S(=O)([N-]S(=O)(=O)C(F)(F)F)C(F)(F)F.OCCC[n+]1ccccc1, the activity coefficient amounted to 0.5 ± 0.038.

As to `c1ccccc1` [benzene] + O=S(=O)([N-]S(=O)(=O)C(F)(F)F)C(F)(F)F.OCCC[n+]1ccccc1, the activity coefficient was 1.62 ± 0.11.

Regarding `CCCCO` [butan-1-ol] + O=S(=O)([N-]S(=O)(=O)C(F)(F)F)C(F)(F)F.OCCC[n+]1ccccc1, the activity coefficient stood at 1.67 ± 0.11.

(Values after the NIST ThermoML archive (doi:10.1016/j.jct.2011.04.018).)
